The text below walks through data of patent publication US9120770B2, “Substituted pyridine and pyrazine compounds as PDE4 inhibitors” (DART NEUROSCIENCE (CAYMAN) LTD., priority 2013, dated 2015).

The target in this assay is PDE4D3 (Homo sapiens, UniProt Q08499).
PDE4D3, sequence (Q08499 1-673 isoform Q08499-2): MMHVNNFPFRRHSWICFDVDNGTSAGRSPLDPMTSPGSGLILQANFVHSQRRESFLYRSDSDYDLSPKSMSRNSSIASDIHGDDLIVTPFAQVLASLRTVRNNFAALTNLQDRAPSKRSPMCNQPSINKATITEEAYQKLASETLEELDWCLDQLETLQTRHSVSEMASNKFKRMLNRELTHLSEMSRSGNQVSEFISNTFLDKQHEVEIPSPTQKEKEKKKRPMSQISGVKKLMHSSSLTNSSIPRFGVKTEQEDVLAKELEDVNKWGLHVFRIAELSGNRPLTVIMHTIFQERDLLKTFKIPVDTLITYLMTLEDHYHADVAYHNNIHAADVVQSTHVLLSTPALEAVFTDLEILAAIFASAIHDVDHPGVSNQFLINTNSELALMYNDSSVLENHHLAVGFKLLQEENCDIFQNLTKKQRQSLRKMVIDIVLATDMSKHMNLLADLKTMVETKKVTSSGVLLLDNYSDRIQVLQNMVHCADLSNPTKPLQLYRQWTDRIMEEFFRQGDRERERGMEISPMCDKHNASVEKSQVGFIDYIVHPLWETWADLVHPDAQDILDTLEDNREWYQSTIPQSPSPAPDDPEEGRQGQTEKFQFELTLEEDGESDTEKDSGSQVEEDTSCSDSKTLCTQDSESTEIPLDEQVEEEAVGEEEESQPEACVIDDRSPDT
For `Cc1ncn(Cc2cnc(OC(F)F)c(-c3cccc(Cl)c3)c2)n1` [Example 148, 3-(3-Chlorophenyl)-2-(difluoromethoxy)-5-[(3-methyl-1H-1,2,4-triazol-1-yl)methyl]pyridine], the EC50 is under 0.1 µM.

For the molecule `COc1ncc(Cn2cnc(C(F)(F)F)c2)cc1-c1cccc(Cl)c1` [Example 149, 3-(3-Chlorophenyl)-2-methoxy-5-{[4-(trifluoromethyl)-1H-imidazol-1-yl]methyl}pyridine], the EC50 lay within 1 to 10 µM.

Take `CC(c1cnc(OC(F)F)c(-c2cccc(Cl)c2)c1)n1cncn1` (stereo not drawn) [Example 150, 3-(3-Chlorophenyl)-2-(difluoromethoxy)-5-[1-(1H-1,2,4-triazol-1-yl)ethyl]pyridine]: the EC50 lay within 0.1 to 1 µM.

The molecule `COc1ncc(Cn2cnc(C)n2)cc1-c1cccc(F)c1` [Example 151, 3-(3-Fluorophenyl)-2-methoxy-5-[(3-methyl-1H-1,2,4-triazol-1-yl)methyl]pyridine] returned an EC50 of under 0.1 µM.

`CCOc1ncc(Cn2cnc(C(F)(F)F)n2)cc1-c1cccc(Cl)c1` [Example 152, 3-(3-Chlorophenyl)-2-ethoxy-5-{[3-(trifluoromethyl)-1H-1,2,4-triazol-1-yl]methyl}pyridine] had an EC50 of 0.1 to 1 µM.

In turn, `CCOc1ncc(Cn2ncnc2C(F)(F)F)cc1-c1cccc(Cl)c1` [Example 153, 3-(3-Chlorophenyl)-2-ethoxy-5-{[5-(trifluoromethyl)-1H-1,2,4-triazol-1-yl]methyl}pyridine] registered an EC50 of under 0.1 µM.

Molecule `Cc1cn(Cc2cnc(OC(F)F)c(-c3cccc(Cl)c3)c2)cn1` [Example 154, 3-(3-Chlorophenyl)-2-(difluoromethoxy)-5-[(4-methyl-1H-imidazol-1-yl)methyl]pyridine] returned an EC50 of 0.1 to 1 µM.

Molecule `COc1ncc(Cn2cnc(C)n2)cc1-c1cccc(OC(F)F)c1` [Example 155, 3-[3-(Difluoromethoxy)phenyl]-2-methoxy-5-[(3-methyl-1H-1,2,4-triazol-1-yl)methyl]pyridine] registered an EC50 of under 0.1 µM.

For `N#Cc1ncn(Cc2cnc(OC(F)F)c(-c3cccc(Cl)c3)c2)n1` [Example 156, 1-{[5-(3-Chlorophenyl)-6-(difluoromethoxy)pyridin-3-yl]methyl}-1H-1,2,4-triazole-3-carbonitrile], the EC50 was in the range of 1 to 10 µM.

`COCc1ncn(Cc2cnc(OC(F)F)c(-c3cccc(Cl)c3)c2)n1` [Example 157, 3-(3-Chlorophenyl)-2-(difluoromethoxy)-5-{[3-(methoxymethyl)-1H-1,2,4-triazol-1-yl]methyl}pyridine]: the EC50 lay in the range of 0.1 to 1 µM.

On to `COCc1ncnn1Cc1cnc(OC(F)F)c(-c2cccc(Cl)c2)c1` [Example 158, 3-(3-Chlorophenyl)-2-(difluoromethoxy)-5-{[5-(methoxymethyl)-1H-1,2,4-triazol-1-yl]methyl}pyridine], for which the EC50 was in the range of 1 to 10 µM.

In turn, `COc1ncc(Cn2cnc(C(F)(F)F)n2)cc1-c1cccc(OC(F)F)c1` [Example 159, 3-[3-(Difluoromethoxy)phenyl]-2-methoxy-5-{[3-(trifluoromethyl)-1H-1,2,4-triazol-1-yl]methyl}pyridine] registered an EC50 of 0.1 to 1 µM.

Molecule `COc1ncc(Cn2ncnc2C(F)(F)F)cc1-c1cccc(OC(F)F)c1` [Example 160, 3-[3-(Difluoromethoxy)phenyl]-2-methoxy-5-{[5-(trifluoromethyl)-1H-1,2,4-triazol-1-yl]methyl}pyridine] returned an EC50 of 0.1 to 1 µM.

In turn, `FC(F)Oc1ncc(Cn2cnnn2)cc1-c1cccc(Cl)c1` [Example 161, 3-(3-Chlorophenyl)-2-(difluoromethoxy)-5-(1H-1,2,3,4-tetrazol-1-ylmethyl)pyridine] yielded an EC50 of 0.1 to 1 µM.

For `FC(F)Oc1ncc(Cn2ncnn2)cc1-c1cccc(Cl)c1` [Example 162, 3-(3-Chlorophenyl)-2-(difluoromethoxy)-5-(2H-1,2,3,4-tetrazol-2-ylmethyl)pyridine], the EC50 is under 0.1 µM.

As a reminder, the EC50 is the concentration that produces a half-maximal response. A higher EC50 goes with weaker potency.
